Patent US10787425B2, “Thiazolidinedione derivative and use thereof” (INDUSTRY-ACADEMIC COOPERATION FOUNDATION CHOSUN UNIVERSITY, priority 2016, dated 2020)

Assays:
15-PGDH = 15-PGDH (Homo sapiens (Human), UniProt P15428); assay: 15-PGDH inhibitory activity (NADH at 340 nm); type: biochemical; conditions: concentration inhibiting 50% of 15-PGDH activity; purified 15-PGDH, 21 μM PGE2, 0.25 mM NAD+
Experimental: The 15-PGDH cDNA plasmid containing the BamHI of the pGEX-2T expression vector and EcoRI restriction enzyme sites was transfected into E. coli BL-21 LysS by using conventional methods used in the art. Then, the transfected cells were cultured in an LB medium (500 ml) containing 50 μg/ml of ampicillin at a temperature of 37° C. and at a rate of 220 rpm until the OD600 reached 0.6. Then, isopropyl beta-D-thiogalactoxide (1 mM) was added and the cells were further cultured at the temperature of 25° C. for 12 hours. The cells were then centrifuged at the gravity of 4,000 g for 30 minutes at a temperature of 4° C. to collect a cell pellet. The cell pellet was dissolved in 20 ml of cell lysis buffer (containing 1×PBS buffer (pH 7.4): 1 mM EDTA and 0.1 mM DTT) and sonicated at a temperature of 4° C. for 14×10 s. The digested cells were centrifuged at the gravity of 4,000 g for 20 minutes at a temperature of 4° C. The supernatant was then slowly loaded onto a glutathione-sepharose 4B column equilibrated at a temperature of 4° C. with cell lysis buffer [containing 1×PBS buffer (pH 7.4), 1 mM EDTA, and 0.1 mM DTT]. Washing was performed thereon by using a dissolution buffer until the OD280 reached 0.005 or less. Then, 15-PGDH was eluted from the glutathione-sepharose 4B column at room temperature for 5 minutes by using an elution buffer [containing 50 mM Tris-HCl (pH 8.0), 10 mM reduced glutathione, 1 mM EDTA, and 0.1 mM DTT). The concentration of the purified enzyme was measured, and the purification level thereof was confirmed by SDS-PAGE.
That is, the cells were treated with a solution including 50 mM Tris-HCl (pH 7.5), 0.1 mM DTT, 0.25 mM (NAD+), 10 μg of purified 15-PGDH enzyme, 21 μM PGE2. and various concentrations (0.0001 μM to 64 μM) of the derivative compound according to the present disclosure. In this case, the total volume of the solution was 2 ml. Then, the absorbance of the reaction mixture was recorded at the wavelength of 340 nm. To measure the activity of the derivative compounds according to the present disclosure, which is an inhibitor of 15-PGDH, the average value of NADH absorbance at 340 nm at various concentrations was obtained from a standard curve.

A549 cells = assay: Measurement of PGE2 concentration in A549 cell medium (ELISA); type: cell-based, human; conditions: for Increment %: PGE2 concentration versus PBS control, 5 μM, 12 hours; for PGE2 concentration: inhibitor 5 μM, medium collected after 12 hours, ELISA
Experimental: A549 cells were subcultured in RPMI 1640 medium (containing+8% fetal bovine serum (FBS) and antibiotic-antimycotic (AA)) for one week, and then, inoculated in a 6-well plate at 2.5×10^5 cells/mL (5×10^5 cells/well) and cultured for 24 hours in a 5% CO2 incubator at a temperature of 37° C. A549 cells are adenocarcinomic human alveolar basal epithelial cells which are derived from lung tissues. When cells were grown to about 80% confluence, a 15-PGDH inhibitor in 1×PBS buffer was injected at a concentration of 5 μM. To compare the results, the same amount of 1×PBS buffer was injected into a negative control, and, the treated cells were cultured in 5% CO2 incubator. After 12 hours, the medium was collected and the collected medium was assayed to measure PGE2 concentration by using an ELISA Kit (Abcam) according to the manufacturer's instructions. The concentration may be expressed as an exact value by plotting the calibration curve by using the absorbance value after diluting the standard in the medium by concentration.

Sequence of 15-PGDH (P15428 whole entry): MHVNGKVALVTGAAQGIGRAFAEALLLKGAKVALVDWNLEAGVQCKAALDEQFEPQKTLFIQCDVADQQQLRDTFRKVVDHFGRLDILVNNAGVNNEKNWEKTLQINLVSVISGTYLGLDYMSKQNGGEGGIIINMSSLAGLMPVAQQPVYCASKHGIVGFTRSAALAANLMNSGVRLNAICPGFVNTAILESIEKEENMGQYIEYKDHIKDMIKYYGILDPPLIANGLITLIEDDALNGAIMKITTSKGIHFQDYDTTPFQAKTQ

Row | SMILES | IC50 (15-PGDH) [nM] | Increment % (A549 cells) [%] | PGE2 concentration (A549 cells) [pg/mL]
1 | O=C1NC(=O)/C(=C/c2ccc(OC(=O)C3CCC3)cc2Cl)S1 [Compound 92, (Z)-3-chloro-4-((2,4-dioxothiazolidin-5-ylidene)methyl)phenyl cyclobutanecarboxylate] | 206 | −57.6754 | 47.26
2 | O=C(O)c1ccccc1.O=C1NC(=O)/C(=C/c2ccc(OC(=O)c3ccccc3)c(Cl)c2)S1 [Compound 11, (Z)-2-chloro-4-((2,4-dioxothiazolidin-5-ylidene)methyl)phenyl benzoate] | 31.9 | −78.32 | 25.95
3 | O=C1NC(=O)/C(=C/c2ccc(OC(=O)C3CCC3)cc2)S1 [Compound 62, (Z)-4-((2,4-dioxothiazolidin-5-ylidene)methyl)phenyl cyclobutanecartboxylate] | – | 12.13 | 178.4361
4 | O=C1NC(=O)/C(=C/c2ccc(OC(=O)C3CC3)c(Br)c2)S1 [Compound 16, (Z)-2-bromo-4-((2,4-dioxothiazolidin-5-ylidene)methyl)phenyl cyclopropanecarboxylate] | 220 | 12.12 | 283.7043
5 | O=C1NC(=O)/C(=C/c2ccc(OC(=O)C3CCC3)c(Cl)c2)S1 [Compound 2, (Z)-2-chloro-4-((2,4-dioxothiazolidin-5-ylidene)methyl)phenyl cyclobutanecarboxylate] | 782 | 9.96 | 301.0364
6 | O=C(CCC1CCCC1)Oc1cccc(/C=C2\SC(=O)NC2=O)c1Cl [Compound 80, (Z)-2-chloro-3-((2,4-dioxothiazolidin-5-ylidene)methyl)phenyl 3-cyclopentylpropanoate] | 34.7 | 97.99 | 236.9453
7 | O=C(O)c1ccccc1.O=C1NC(=O)/C(=C/c2ccc(OC(=O)c3ccccc3)cc2Cl)S1 [Compound 101, (Z)-3-chloro-4-((2,4-dioxothiazolidin-5-ylidene)methyl)phenyl benzoate] | 45.1 | 79.4871 | 200.4108
8 | O=C(Cc1ccccc1)Oc1ccc(/C=C2\SC(=O)NC2=O)cc1Cl [Compound 12, (Z)-2-chloro-4-((2,4-dioxothiazolidin-5-ylidene)methyl)phenyl 2-phenylacetate] | 63.5 | −34.89 | 77.92
9 | O=C(CCc1ccccc1)Oc1ccc(/C=C2\SC(=O)NC2=O)cc1 [Compound 73, (Z)-4-((2,4-dioxothiazolidin-5-ylidene)methyl)phenyl 3-phenylpropanoate] | 54.4 | 102.39 | 261.4347
10 | COc1cc(/C=C2\SC(=O)NC2=O)ccc1OC(=O)C1CCC1 [Compound 32, (Z)-4-((2,4-dioxothiazolidin-5-ylidene)methyl)-2-methoxyphenyl cyclobutanecarboxylate] | 1120 | 60.62 | 316.7495
11 | COc1cc(/C=C2\SC(=O)NC2=O)ccc1OC(=O)CCC1CCCCC1 [Compound 38, (Z)-4-((2,4-dioxothiazolidin-5-ylidene)methyl)-2-methoxyphenyl 3-cyclohexylpropanoate] | – | 323.99 | 859.6813
12 | O=C(CC1CCCC1)Oc1cccc(/C=C2\SC(=O)NC2=O)c1Cl [Compound 79, (Z)-2-chloro-3-((2,4-dioxothiazolidin-5-ylidene)methyl)phenyl 2-cyclopentylacetate] | 42.8 | −2.34 | 116.875
13 | CCOc1cc(/C=C2\SC(=O)NC2=O)ccc1OC(=O)CCC1CCCCC1 [Compound 53, (Z)-4-((2,4-dioxothiazolidin-5-ylidene)methyl)-2-ethoxyphenyl 3-cyclohexylpropanoate] | – | 189.34 | 792.73
14 | O=C1NC(=O)/C(=C/c2cccc(OC(=O)C3CCC3)c2Cl)S1 [Compound 77, (Z)-2-chloro-3-((2,4-dioxothiazolidin-5-ylidene)methyl)phenyl cyclobutanecarboxylate] | 482 | 56.54 | 187.3399
15 | O=C1NC(=O)/C(=C/c2ccc(OC(=O)C3CC3)cc2)S1 [Compound 61, (Z)-4-((2,4-dioxothiazolidin-5-ylidene)methyl)phenyl cyclopropanecarboxylate] | 1410 | −99.97 | 0.04774
16 | O=C(CC1CCCCC1)Oc1ccc(/C=C2\SC(=O)NC2=O)cc1 [Compound 67, (Z)-4-((2,4-dioxothiazolidin-5-ylidene)methyl)phenyl 2-cyclohexylacetate] | 30.5 | 8.34 | 139.9468
17 | O=C1NC(=O)/C(=C/c2ccc(OC(=O)C3CCCC3)cc2Cl)S1 [Compound 93, (Z)-3-chloro-4-((2,4-dioxothiazolidin-5-ylidene)methyl)phenyl cyclopentanecarboxylate] | 71 | 2.9785 | 114.9832
18 | O=C(CCCC1CCCCC1)Oc1ccc(/C=C2\SC(=O)NC2=O)c(Cl)c1 [Compound 99, (Z)-3-chloro-4-((2,4-dioxothiazolidin-5-ylidene)methyl)phenyl 4-cyclohexylbutanoate] | – | 66.7717 | 186.2131
19 | O=C(CCC1CCCCC1)Oc1cccc(/C=C2\SC(=O)NC2=O)c1Cl [Compound 83, (Z)-2-chloro-3-((2,4-dioxothiazolidin-5-ylidene)methyl)phenyl 3-cyclohexylpropanoate] | – | 201.32 | 634.0143
20 | O=C(CCC1CCCC1)Oc1ccc(/C=C2\SC(=O)NC2=O)c(Cl)c1 [Compound 95, (Z)-3-chloro-4-((2,4-dioxothiazolidin-5-ylidene)methyl)phenyl 3-cyclopentylpropanoate] | – | 113.4574 | 238.3412
21 | O=C(CCC1CCCCC1)Oc1ccc(/C=C2\SC(=O)NC2=O)cc1Cl [Compound 8, (Z)-2-chloro-4-((2,4-dioxothiazolidin-5-ylidene)methyl)phenyl 3-cyclohexylpropanoate] | – | 221.32 | 879.6746
22 | O=C(CCC1CCCCC1)Oc1ccc(/C=C2\SC(=O)NC2=O)cc1Br [Compound 23, (Z)-2-bromo-4-((2,4-dioxothiazolidin-5-ylidene)methyl)phenyl 3-cyclohexylpropanoate] | – | 311.02 | 1040.03
23 | O=C(CCC1CCCCC1)Oc1ccc(/C=C2\SC(=O)NC2=O)cc1 [Compound 68, (Z)-4-((2,4-dioxothiazolidin-5-ylidene)methyl)phenyl 3-cyclohexylpropanoate] | – | 97.45 | 255.0535
24 | O=C1NC(=O)/C(=C/c2cccc(OC(=O)C3CCCCC3)c2Cl)S1 [Compound 81, (Z)-2-chloro-3-((2,4-dioxothiazolidin-5-ylidene)methyl)phenyl cyclohexanecarboxylate] | – | 10.32 | 232.1268
25 | O=C(CCC1CCCCC1)Oc1ccc(/C=C2\SC(=O)NC2=O)c(Cl)c1 [Compound 98, (Z)-3-chloro-4-((2,4-dioxothiazolidin-5-ylidene)methyl)phenyl 3-cyclohexylpropanoate] | – | 138.7487 | 266.5808
26 | O=C1NC(=O)/C(=C/c2ccc(OC(=O)c3ccccc3)cc2)S1 [Compound 71, (Z)-4-((2,4-dioxothiazolidin-5-ylidene)methyl)phenyl benzoate] | – | −58.38 | 53.76
